Test results published in patent publication US4334067A, “Flavan compounds and acid addition salts thereof” (Maruko Seiyaku Co., Ltd., priority 1979, dated 1982).
Counter-ions that a name gives are not always drawn.

Columns and labels:
Acute toxicity = conditions: mouse, in vivo, 7 days observation
Method: […] After observing general conditions of mice for 7 days after administration, 50% lethal dose [LD50 (mg/kg)] was determined.

ddY male mice = test: Anti-convulsive activity (pulse from corneal electrode); assay type: in vivo; conditions: 60 mg/kg intraperitoneally, 15 minutes before pulse; compared with Phenytoin 40 mg/kg
Method: The test compound was administered intraperitoneally to ddY male mice (weighing 20 to 25 g, 7 mice per group), and, 15 minutes thereafter, pulse (A.C. 100 V, 200 msec.) was applied to the mice from a corneal electrode, and the duration time of tonic flexor, tonic extensor and clonic convulsion were determined.

Wistar male rats [1] = test: Anti-arrhythmic activity (aconitine-induced arrhythmia); assay type: in vivo; conditions: 10 mg/kg, 10 minutes before aconitine; compared with Ajmaline 5 mg/kg
Method: An aqueous solution of aconitine was injected continuously at a rate of 3 μg/kg/minute to Wistar male rats (weighing 220 to 270 g, five rats per group) through a polyethylene cannula inserted into the femoral vein. The test compounds were administered 10 minutes before the administration of aconitine.
The cardiac arrhythmia was determined by electrocardiographic recording of II lead on the limbs and the generation of descending large QRS complex was taken as the ventricular extrasystole and the observation was conducted until ventricular fibrillation was produced.

Wistar male rats [2] = test: Diuretic activity; assay type: in vivo; conditions: oral, urine collected 5 hours, control = 1.0
Method: Wistar male rats (weighing 200 to 250 g, 9 rats per group) fasted 18 hours before the test but freely received drinking water were used. A 0.9% (by weight) physiological saline solution containing the test compound was orally charged through a stomach tube in an amount of 3 ml/100 g of body weight. Immediately thereafter, the rats were placed in a stainless steel cage and the urine was collected during a period of 5 hours after the administration and the urine volume was measured.

BALB/C type male mice = test: Anti-ulcerous activity (restraint water-immersion stress ulcer); assay type: in vivo; conditions: for Ulcerous Index: control 54.4 mm; for % Inhibition: inhibition of stress ulcer versus control
Method: BALB/C type male mice weighing about 20 g which fasted for 17 hours before the test were placed in a poly(vinyl chloride) cyclindrical restraint cage having an inside diameter of 35 mm and the mice were immersed in water at 15° C. to the level of xiphisternum of mice for a period of 5 hours. Immediately thereafter, stomach was extracted and 1 ml of 0.5% (by weight) formalin solution was injected into the stomach. After fixing for about 10 minutes, the stomach was incised along the greater curvature thereof and the ulcer generated was obserbed by a stereoscopic microcope.

| SMILES | LD50 at 168 h (Acute toxicity; iv) | LD50 at 168 h (Acute toxicity; po) | anti-convulsive activity (ddY male mice) | activity for prolonging the time required for producing the cardiac arrhythmia (Wistar male rats [1]) | Volume Ratio of Urine (Wistar male rats [2]; 100 mg/kg) | Ulcerous Index (BALB/C type male mice; 10 mg/kg) | % Inhibition (BALB/C type male mice; 10 mg/kg) | Ulcerous Index (BALB/C type male mice; 50 mg/kg) | % Inhibition (BALB/C type male mice; 50 mg/kg) | Volume Ratio of Urine (Wistar male rats [2]; 50 mg/kg) |
| --- | --- | --- | --- | --- | --- | --- | --- | --- | --- | --- |
| COc1ccc([C@H]2Oc3ccccc3[C@H](N3CCN(C)CC3)[C@H]2O)cc1 (relative stereo) [Compound B, 2,3-cis-3,4-trans-4'-methoxy-4-(4-methylpiperazin-1-yl)flavan-3-ol dimaleate] | 1000 mg/kg | 2000 mg/kg | comparable to that of Phenytoin | superior to Ajmaline | – | – | – | – | – | – |
| CN(C)CCN[C@H]1c2ccccc2O[C@@H](c2ccccc2)[C@@H]1O (relative stereo) [Compound H, 2,3-trans-3,4-trans-4-(2-dimethylaminoethylamino)-flavan-3-ol dimaleate] | 300 mg/kg | 300 mg/kg | – | superior to Ajmaline | – | – | – | – | – | – |
| CN1CCN([C@H]2c3ccccc3O[C@@H](c3ccccc3)[C@@H]2O)CC1 (relative stereo) [Compound F, 2,3-trans-3,4-trans-4-(4-methylpiperazin-1-yl)flavan-3-ol dimaleate] | 300 mg/kg | 300 mg/kg | – | – | 2.2 | – | – | – | – | – |
| CN1[C@@H]2CC[C@H]1C[C@@H](OC(=O)C(CO)c1ccccc1)C2 (some centres unmarked) [Atropine Sulfate, reference compound] | – | – | – | – | – | 30.7 mm | 43.8% | – | – | – |
| COc1ccc([C@H]2Oc3ccccc3[C@H](NCCCN3CCOCC3)[C@H]2O)cc1 (relative stereo) [Compound C, 2,3-cis-3,4-trans-4'-methoxy-4-(3-morpholinopropylamino)flavan-3-ol dimaleate] | 500 mg/kg | 1500 mg/kg | comparable to that of Phenytoin | – | 2.1 | – | – | – | – | – |
| CC(=O)O[C@H]1[C@H](c2ccccc2)Oc2ccccc2[C@@H]1N1CCN(C)CC1 (relative stereo) [Compound G, 2,3-trans-3,4-trans-3-acetoxy-4-(4-methylpiperazin-1-yl)flavan dimaleate] | 300 mg/kg | 1000 mg/kg | – | – | – | 37.6 mm | 30.8% | 14.3 mm | 73.7% | 3.0 |
| O[C@H]1[C@H](c2ccccc2)Oc2ccccc2[C@@H]1N1CCCCC1 (relative stereo) [Compound E, 2,3-trans-3,4-trans-4-piperidinoflavan-3-ol maleate] | 1000 mg/kg | 1500 mg/kg | comparable to that of Phenytoin | – | 2.8 | – | – | – | – | – |
| COc1ccc([C@H]2Oc3ccccc3[C@H](NCCCN(C)C)[C@H]2O)cc1 (relative stereo) [Compound D, 2,3-cis-3,4-trans-4-(3-dimethylaminopropylamino)-4'-methoxyflavan-3-ol] | 1000 mg/kg | 1500 mg/kg | – | – | – | – | – | – | – | – |
| CCN(CC)CCN[C@H]1c2ccccc2O[C@H](c2ccc(OC)cc2)[C@@H]1O (relative stereo) [Compound A, 2,3-cis-3,4-trans-4-(2-diethylaminoethylamino)-4'-methoxyflavan-3-ol dimaleate] | 1000 mg/kg | 2000 mg/kg | comparable to that of Phenytoin | – | – | – | – | – | – | – |
